The values below come from ChEMBL document CHEMBL5257160, “Siderophore conjugates to combat antibiotic-resistant bacteria” (2023).

In brackets after ≈: the same amount, converted by molar mass. Numbered stars: 1 amine (or outer) side, 2 acyl side, 3 side chain; on linkers, the order of the positions; unused ones are H or OH. Square brackets hold non-standard residues; d marks the D form. Peptide text beside a SMILES is read from it. X1 = Cn1c(=O)n([C@@H]2S[C@H]([C@H](O)[C@@H](N[*:1])C(=O)[*:2])[C@@H](O)[C@H]2O)cc/c1=N\C(N)=O; Orn(N5-OH,N5-Ac) = CC(=O)N(O)CCC[C@H](N)C(=O)O

Common to all, as to type: functional
One assay concerns Streptococcus pneumoniae. Briefly: Antibacterial activity against Streptococcus pneumoniae assessed as inhibition of bacterial growth.
The next assay has as its system Yersinia enterocolitica. The assay can be described thus: Antibacterial activity against Yersinia enterocolitica assessed as inhibition of bacterial growth in iron depleting media incubated for 20 hrs by CLSI protocol based assay.
The subject of another assay is Escherichia coli. Briefly: Antibacterial activity against Escherichia coli assessed as inhibition of bacterial growth.
In another assay the test system is Klebsiella sp. Briefly: Antibacterial activity against Klebsiella sp. assessed as inhibition of bacterial growth.
In another assay the test system is Enterobacter sp. The assay can be described thus: Antibacterial activity against Enterobacter sp. assessed as inhibition of bacterial growth.
Another assay deals with Serratia sp. The assay can be described thus: Antibacterial activity against Serratia sp. assessed as inhibition of bacterial growth. The conditions noted are these: Serratia sp. (in: enterobacteria).
In a further assay the test system is Acinetobacter baumannii. Briefly: Antibacterial activity against carbapenem - resistant Acinetobacter baumannii.
The test system of a further assay is Pseudomonas aeruginosa. The assay can be described thus: Antibacterial activity against Pseudomonas aeruginosa assessed as inhibition of bacterial growth.
Another assay deals with Enterobacteriaceae. Briefly: Antibacterial activity against Enterobacteriaceae assessed as inhibition of bacterial growth.
For a further assay, the system named is Proteus sp. Briefly: Antibacterial activity against Proteus sp. assessed as inhibition of bacterial growth. The conditions noted are these: Proteus sp. (in: enterobacteria).
In assay [1] the test system is Stenotrophomonas maltophilia. The assay can be described thus: Antibacterial activity against Stenotrophomonas maltophilia assessed as inhibition of bacterial growth.

The term MIC denotes the smallest concentration in the dilution series that meets the test's criterion for growth inhibition. For the compound `CC(=O)N(O)CCC[C@H](NC(=O)[C@H](CCCN(O)C(C)=O)NC(=O)[C@@H](N)CCCN(O)C(C)=O)C(=O)N[C@@H](CCC(=O)NCCNC(=O)CC[C@@H](NC(=O)c1ccc(N(C)Cc2cnc3nc(N)nc(N)c3n2)cc1)C(=O)O)C(=O)O`, the MIC amounted to 0.00196 µg/mL (≈ 0.00172 µM) with Streptococcus pneumoniae and 0.0078 µg/mL (≈ 0.00683 µM) in the assay with Yersinia enterocolitica.

For the compound `CC(=O)N(O)CCC[C@H](NC(=O)[C@H](CCCN(O)C(C)=O)NC(=O)[C@@H](N)CCCN(O)C(C)=O)C(=O)N[C@@H](CO)C(=O)N[C@@H](C(=O)O)[C@@H](O)[C@H]1S[C@@H](n2cc/c(=N\C(N)=O)n(C)c2=O)[C@H](O)[C@@H]1O` (H-[Orn(N5-OH,N5-Ac)][Orn(N5-OH,N5-Ac)][Orn(N5-OH,N5-Ac)]S[X1]-OH), the MIC with Escherichia coli was found to be 0.005 µg/mL (≈ 0.00504 µM); with Streptococcus pneumoniae, 0.01 µg/mL (≈ 0.0101 µM).

One may read the MIC90 as the lowest concentration that inhibits either 90% of growth or 90% of the strains tested, depending on the study. In the case of `CC(C)(O/N=C(\C(=O)N[C@@H]1C(=O)N2C(C(=O)[O-])=C(C[N+]3(CCNC(=O)c4ccc(O)c(O)c4Cl)CCCC3)CS[C@H]12)c1csc(N)n1)C(=O)O` [CEFIDEROCOL], the MIC90 in the assay with Escherichia coli, in the assay on Klebsiella sp., in the assay on Enterobacter sp. and with Serratia sp. was 0.25 µg/mL (≈ 0.332 µM) throughout.

In the assay on Acinetobacter baumannii, `C[C@@H]1S[C@@H]2[C@H](NC(=O)/C(=N/OC(C)(C)C(=O)O)c3csc(N)n3)C(=O)N2C(C(=O)[O-])=C1C[N+]12CCC(CNC(=O)c3ccc(O)c(O)c3Cl)(CC1)C2` had an MIC of at most 0.03 µg/mL.

`C[C@H]1[C@H](NC(=O)/C(=N\OCc2cc(=O)c(O)cn2O)c2csc(N)n2)C(=O)N1OS(=O)(=O)O`: the MIC was 2 µg/mL (≈ 3.96 µM) with Pseudomonas aeruginosa and at most 1 µg/mL in the assay on Enterobacteriaceae.

In the case of `CC(C)(O/N=C(\C(=O)N[C@@H]1C(=O)N(S(=O)(=O)O)C1CNC(=O)NCc1cc(=O)c(O)cn1O)c1csc(N)n1)C(=O)O` (some centres undefined), the MIC90 came out at 8 µg/mL (≈ 12.6 µM) in the assay with Enterobacter sp., 0.12 µg/mL (≈ 0.19 µM) in the assay with Proteus sp. and 0.25 µg/mL (≈ 0.395 µM) in assay [1].
